# Assay results as given in patent US20160264593A1 (priority 2013, published 2016).
# Values joined by “and” are separate entries in the source; they are usually repeats but may differ in a detail not shown here. Equal values may be shown once.
# Tests used:
# [1] = tested on: PP2A; assay: PP2A activity in mouse livers after IP dosing (PP2A immunoprecipitation phosphatase assay, malachite green); type: in vivo, Balb/c mice; conditions: for Average Conc. (group of 3 mice) / Average Relative Activity (group, vehicle = 100) / Conc. (phosphate, single reading, per mouse) / Mean Conc. (per mouse) / Mean Conc. less IgG blank (per mouse) / Relative Conc. (per mouse, to vehicle) / Relative PP2A Activity (per mouse, vehicle = 100): liver
# Protocol: (§1) Coomassie (Bradford) Protein Assay Kit (Pierce); PP2A Immunoprecipitation Phosphatase Assay Kit (Millipore); Lysate preparation for low endogenous phosphate: 20 mM imidazole-HCl, 2 mM EDTA, 2 mM EGTA, 1 mM PMSF, 1 mM benzamidine, 10 ug/ml each of aprotinin, leupeptin, antipain, soybean trypsin inhibitor; Normal Mouse IgG (Millipore); Okadaic acid (OA) (Tocris); DMSO (Sigma).
# (§2) • Species: Mus Musculus • Strain: Balb/c mice • Age: 6-8 weeks • Sex: female • Body weight: 18-22 g • Vendor: Shanghai Laboratory Animal Center, Shanghai, China; • Number of animals: 66 Balb/c mice plus spare
# (§3) The mice were kept in laminar flow rooms at constant temperature and humidity with 4 animals in each cage. • Temperature: 20-25 • Humidity: 40-70%. • Light cycle: 12 hours light and 12 hours dark. • Cages: Made of polycarbonate. The size is 29 cm×17.5 cm×12 cm (L×w×H). The bedding material is wood debris, which is changed once per week. • Diet: Animals had free access to irradiation sterilized dry granule food during the entire study period. • Water: Animals had free access to sterile drinking water. • Cage identification: the identification labels for each cage contained the following information: number of animals, sex, strain, date arrival, treatment, study number, group number, and the starting date of the treatment. • Animal identification: Animals were marked by ear punch.
# (§4) All the procedures related to animal handling, care, and the treatment in this study were performed according to guidelines approved by the Institutional Animal Care and Use Committee (IACUC) of WuXi AppTec (Shanghai), following the guidance of the Association for Assessment and Accreditation of Laboratory Animal Care (AAALAC). At the time of routine monitoring, the animals were checked and recorded for any effects of tumor growth on normal behavior such as mobility, food and water consumption (by looking only), body weight gain/loss, eye/hair matting and any other abnormal effect.
# (§5) 1. Proper amount of the compounds were weighed. 2. The compounds were dissolved in 4% sterile sodium bicarbonate. 3. All of the compounds should be well dissolved and clear. 4. The compounds should be kept cold once in solution and injected within an hour. 5. The mice were administered intraperitoneally according to their body weights, 20 g mouse was treated with 0.2 ml compound solution. 6. Mice were treated with vehicle and compounds according to Table 1. 7. 3 hours after the dose, 3 mice from each group were euthanized by
# (§6) CO2 exposure, and the brains and left lobe of livers were taken and snap-frozen in liquid nitrogen immediately. 6 hours after the dose, the other 3 mice from each group were euthanized by CO2 exposure, and the brains and left lobe of livers were taken and snap-frozen in liquid nitrogen immediately.
# (§7) Preparation of malachite green phosphate detection solution Added […] of Solution B to each 1 mL of Solution A, kept at room temperature during use. […] of mixed solution AB is used per assay well.
# (§8) Diluted 125 mL Phosphate Standard (Solution C) with 1125 mL of distilled water to make 0.1 mM working solution. The solution was used to prepare a phosphate standard curve as described in the table below.
# (§9) 1. 25 μL of each phosphate standards was transferred to wells of microliter plate. 2. Added 100 μL of Malachite Green Solution AB. Mixed carefully without creating bubbles. 3. Cultured for 15 minutes at RT. 4. Measured absorbance at a wavelength between 650 nm in a microliter plate reader.
# (§10) 1. Dissolved 1 mg Threonine Phosphopeptide (Catalog #12-219) in 1.10 mL of distilled water to prepare a 1 mM solution. 2. Aliquot peptide solution and stored at ˜20° C. as necessary.
# (§11) 1. Mouse brain or liver was homogenized using lysis buffer (25 g/L), centrifuged at 12000 g for 10 minutes at […], and the supernatants were collected. 2. The protein was quantitated, and 240 μg of mouse brain or liver lysate was taken to assay phosphatase activity. 3. […]
# [2] = tested on: PP2A; assay: PP2A activity in mouse brains after IP dosing (PP2A immunoprecipitation phosphatase assay, malachite green); type: in vivo, Balb/c mice; design: Average Conc. (group of 3 mice): unit not given here; conditions: for Average Conc. (group of 3 mice) / Average Relative Activity (group, vehicle = 100) / Conc. (phosphate, single reading, per mouse) / Mean Conc. (per mouse) / Mean Conc. less IgG blank (per mouse) / Relative Conc. (per mouse, to vehicle) / Relative PP2A Activity (per mouse, vehicle = 100): brain
# Protocol: as §1, §2, §3, §4, §5, §6, §7, §8, §9, §10, §11
# [3] = high dose IP (mpk: 100 1.5, 113 2.2, 151 1.6, 157 2.0), 3 h
# [4] = high dose IP (mpk: 100 1.5, 113 2.2, 151 1.6, 157 2.0), 6 h
# [5] = low dose IP (mpk: 100 0.75, 113 1.1, 151 0.8, 153 0.85, 157 1.0), 3 h
# [6] = low dose IP (mpk: 100 0.75, 113 1.1, 151 0.8, 153 0.85, 157 1.0), 6 h
# [7] = high dose IP (mpk: 100 1.5, 113 2.2, 151 1.6, 153 1.7, 157 2.0), 3 h
# [8] = high dose IP (mpk: 100 1.5, 113 2.2, 151 1.6, 153 1.7, 157 2.0), 6 h
smiles,measurement,setting,value
CN1CCN(C(=O)C2C(C(=O)OCC(Cl)(Cl)Cl)[C@H]3CC[C@@H]2O3)CC1 (stereo partly shown) [Compound 113],Average Conc. (group of 3 mice),[1]; [3],138.31
same,"Average Relative Activity (group, vehicle = 100)",[1]; [3],35.3
same,"Conc. (phosphate, single reading, per mouse)",[1]; [3],200.67 and 204.55 and 192.25 and 216.22 and 155.1 and 163.31
same,Mean Conc. (per mouse),[1]; [3],202.61 and 204.23 and 159.21
same,Mean Conc. less IgG blank (per mouse),[1]; [3],152.24 and 153.86 and 108.83
same,"Relative Conc. (per mouse, to vehicle)",[1]; [3],0.39 (2×) and 0.28
same,"Relative PP2A Activity (per mouse, vehicle = 100)",[1]; [3],38.8 and 39.21 and 27.74
same,Average Conc. (group of 3 mice),[1]; [4],104.16
same,"Average Relative Activity (group, vehicle = 100)",[1]; [4],26.6
same,"Conc. (phosphate, single reading, per mouse)",[1]; [4],246.88 and 269.98 and 80.17 and 78.45 and 124.87 and 126.82
same,Mean Conc. (per mouse),[1]; [4],258.43 and 79.31 and 125.84
same,Mean Conc. less IgG blank (per mouse),[1]; [4],208.06 and 28.94 and 75.47
same,"Relative Conc. (per mouse, to vehicle)",[1]; [4],0.53 and 0.07 and 0.19
same,"Relative PP2A Activity (per mouse, vehicle = 100)",[1]; [4],53.13 and 7.39 and 19.27
same,activity of PP2A in livers as compared with vehicle (statement),"[1]; high dose IP, 3 h",significantly inhibited
same,activity of PP2A in livers as compared with vehicle (statement),"[1]; high dose IP, 6 h post treatment",significantly inhibited
same,Average Conc. (group of 3 mice),[1]; [5],179.91
same,"Average Relative Activity (group, vehicle = 100)",[1]; [5],45.9
same,"Conc. (phosphate, single reading, per mouse)",[1]; [5],258.54 and 266.31 and 211.9 and 190.3 and 226.36 and 228.31
same,Mean Conc. (per mouse),[1]; [5],262.43 and 201.1 and 227.34
same,Mean Conc. less IgG blank (per mouse),[1]; [5],212.05 and 150.73 and 176.96
same,"Relative Conc. (per mouse, to vehicle)",[1]; [5],0.54 and 0.38 and 0.45
same,"Relative PP2A Activity (per mouse, vehicle = 100)",[1]; [5],54.04 and 38.41 and 45.1
same,Average Conc. (group of 3 mice),[1]; [6],212.74
same,"Average Relative Activity (group, vehicle = 100)",[1]; [6],54.3
same,"Conc. (phosphate, single reading, per mouse)",[1]; [6],229.82 and 254.44 and 279.7 and 291.58 and 266.31 and 256.81
same,Mean Conc. (per mouse),[1]; [6],242.13 and 285.64 and 261.56
same,Mean Conc. less IgG blank (per mouse),[1]; [6],191.76 and 235.27 and 211.19
same,"Relative Conc. (per mouse, to vehicle)",[1]; [6],0.49 and 0.6 and 0.54
same,"Relative PP2A Activity (per mouse, vehicle = 100)",[1]; [6],48.97 and 60.08 and 53.93
same,activity of PP2A in livers as compared with vehicle (statement),"[1]; low dose IP, 3 h",significantly inhibited
same,activity of PP2A in livers as compared with vehicle (statement),"[1]; low dose IP, 6 h",significantly inhibited
same,Average Conc. (group of 3 mice),[2]; [7],892.56
same,"Average Relative Activity (group, vehicle = 100)",[2]; [7],60.76
same,"Conc. (phosphate, single reading, per mouse)",[2]; [7],1058.59 and 1029.91 and 726.72 and 714.92 and 925.07 and 938.33
same,Mean Conc. (per mouse),[2]; [7],1044.25 and 720.82 and 931.70
same,Mean Conc. less IgG blank (per mouse),[2]; [7],1037.88 and 714.45 and 925.33
same,"Relative Conc. (per mouse, to vehicle)",[2]; [7],0.71 and 0.49 and 0.64
same,"Relative PP2A Activity (per mouse, vehicle = 100)",[2]; [7],70.65 and 48.63 and 62.99
same,Average Conc. (group of 3 mice),[2]; [8],897.74
same,"Average Relative Activity (group, vehicle = 100)",[2]; [8],64.36
same,"Conc. (phosphate, single reading, per mouse)",[2]; [8],366.91 and 317.74 and 1221.50 and 1051.60 and 1382.49 and 1084.37
same,Mean Conc. (per mouse),[2]; [8],342.32 and 1136.55 and 1233.43
same,Mean Conc. less IgG blank (per mouse),[2]; [8],335.96 and 1130.19 and 1227.07
same,"Relative Conc. (per mouse, to vehicle)",[2]; [8],0.24 and 0.82 and 0.89
same,"Relative PP2A Activity (per mouse, vehicle = 100)",[2]; [8],24.09 and 81.03 and 87.97
same,activity of PP2A in brains (statement),"[2]; high dose IP, 3 h",most potent
same,Average Conc. (group of 3 mice),[2]; [5],1540.65
same,"Average Relative Activity (group, vehicle = 100)",[2]; [5],104.88
same,"Conc. (phosphate, single reading, per mouse)",[2]; [5],1602.05 and 1620.37 and 1450.70 and 1578.91 and 1521.79 and 1508.30
same,Mean Conc. (per mouse),[2]; [5],1611.21 and 1514.81 and 1515.05
same,Mean Conc. less IgG blank (per mouse),[2]; [5],1604.84 and 1508.44 and 1508.68
same,"Relative Conc. (per mouse, to vehicle)",[2]; [5],1.10 and 1.04 (2×)
same,"Relative PP2A Activity (per mouse, vehicle = 100)",[2]; [5],109.24 and 102.68 and 102.70
same,Average Conc. (group of 3 mice),[2]; [6],1212.05
same,"Average Relative Activity (group, vehicle = 100)",[2]; [6],86.90
same,"Conc. (phosphate, single reading, per mouse)",[2]; [6],1379.36 and 1456.24 and 1108.96 and 1143.66 and 1072.56 and 1149.69
same,Mean Conc. (per mouse),[2]; [6],1417.80 and 1126.31 and 1111.12
same,Mean Conc. less IgG blank (per mouse),[2]; [6],1411.44 and 1119.94 and 1104.76
same,"Relative Conc. (per mouse, to vehicle)",[2]; [6],1.02 and 0.81 and 0.80
same,"Relative PP2A Activity (per mouse, vehicle = 100)",[2]; [6],101.19 and 80.29 and 79.21
